Results taken from ChEMBL document CHEMBL1201862, “PubChem BioAssay data set” (2004).
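Five concentrations, 48 hours, 96-well plates. GI50 = concentration required for 50% inhibition of growth.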 Calls of active or inactive are those of the source. Cut-off read from the data, not from the text of the source: active = GI50 up to about 1.1 µM and inactive = higher.

Legend:
Assay in all cases: growth of human tumour cells (NCI), 48 h
[1] = tested on: A498
[2] = tested on: ACHN
[3] = tested on: BT-549
[4] = tested on: CAKI-1
[5] = tested on: HL-60
[6] = tested on: Hs-578T
[7] = tested on: MCF7
[8] = tested on: MDA-MB-231
[9] = tested on: PC-3
[10] = tested on: SF-539
[11] = tested on: SK-MEL-2
[12] = tested on: TK-10
[13] = tested on: MDA-MB-435
[14] = tested on: Malme-3M
[15] = tested on: OVCAR-4
[16] = tested on: SNB-75
[17] = tested on: U-251
[18] = tested on: HOP-92
[19] = tested on: M19-MEL

| Structure (SMILES) | GI50 [1] | GI50 [2] | GI50 [3] | GI50 [4] | GI50 [5] | GI50 [6] | GI50 [7] | GI50 [8] | GI50 [9] | GI50 [10] | GI50 [11] | GI50 [12] | GI50 [13] | GI50 [14] | GI50 [15] | GI50 [16] | GI50 [17] | GI50 [18] | GI50 [19] |
| --- | --- | --- | --- | --- | --- | --- | --- | --- | --- | --- | --- | --- | --- | --- | --- | --- | --- | --- | --- |
| CCOC(=O)c1c(N=C(S)Nc2ccccc2)sc2c1CCN(C)C2 | > 100 µM (inactive) | > 100 µM (inactive) | > 100 µM (inactive) | > 100 µM (inactive) | > 100 µM (inactive) | > 100 µM (inactive) | > 100 µM (inactive) | > 100 µM (inactive) | > 100 µM (inactive) | > 100 µM (inactive) | > 100 µM (inactive) | > 100 µM (inactive) |  |  |  |  |  |  |  |
| COc1ccc(-c2c3c(nc4nc(SCCc5ccccc5)nc(N)c24)CCCC3)cc1OC |  | > 100 µM (inactive) | > 100 µM (inactive) | > 100 µM (inactive) | > 100 µM (inactive) | 27 µM (inactive) | > 100 µM (inactive) | > 100 µM (inactive) | > 100 µM (inactive) | 85.7 µM (inactive) |  | > 100 µM (inactive) | > 100 µM (inactive) | > 100 µM (inactive) | 75.7 µM (inactive) | 20.5 µM (inactive) | > 100 µM (inactive) |  |  |
| O=C(N/N=C/c1ccccc1)c1c(F)c(F)c(F)c(F)c1F | > 100 µM (inactive) | > 100 µM (inactive) | > 100 µM (inactive) | > 100 µM (inactive) | > 100 µM (inactive) | > 100 µM (inactive) |  | > 100 µM (inactive) | > 100 µM (inactive) | 67 µM (inactive) | > 100 µM (inactive) | > 100 µM (inactive) | 37.8 µM (inactive) | > 100 µM (inactive) | > 100 µM (inactive) | > 100 µM (inactive) | > 100 µM (inactive) | 79.6 µM (inactive) |  |
| C[C@H](O)C(=O)SC[C@H](NC(=O)CC[C@@H](N)C(=O)O)C(=O)NCC(=O)O |  | > 100 µM (inactive) |  | > 100 µM (inactive) | > 10 µM (inactive) |  |  |  |  |  | > 100 µM (inactive) | > 100 µM (inactive) |  | > 100 µM (inactive) | > 100 µM (inactive) | 14.5 µM (inactive) | > 100 µM (inactive) | > 100 µM (inactive) | > 100 µM (inactive) |
| N#CCc1c(F)c(F)c(F)c(F)c1F | > 100 µM (inactive) | > 100 µM (inactive) | > 100 µM (inactive) | > 100 µM (inactive) | > 100 µM (inactive) | > 100 µM (inactive) | > 100 µM (inactive) | > 100 µM (inactive) | > 100 µM (inactive) | > 100 µM (inactive) |  | > 100 µM (inactive) | > 100 µM (inactive) | > 100 µM (inactive) |  |  | > 100 µM (inactive) |  |  |
| OCCCC(O)(c1ccccc1)c1ccccc1 |  | > 100 µM (inactive) | > 100 µM (inactive) |  | > 100 µM (inactive) | > 100 µM (inactive) | > 100 µM (inactive) |  | > 100 µM (inactive) | > 100 µM (inactive) | > 100 µM (inactive) | > 100 µM (inactive) | > 100 µM (inactive) | > 100 µM (inactive) | > 100 µM (inactive) | > 100 µM (inactive) | > 100 µM (inactive) |  |  |
| CC[C@]12C=CCN3CC[C@@]4(c5cc(Br)c(OC)c([N+](=O)[O-])c5N(C)[C@H]4[C@@](O)(C(=O)OC)[C@@H]1OC(C)=O)[C@@H]32 | 44.5 µM (inactive) | 62.4 µM (inactive) | > 100 µM (inactive) | 40.3 µM (inactive) | 33.7 µM (inactive) | 36.1 µM (inactive) | 37.4 µM (inactive) | > 100 µM (inactive) | 40.4 µM (inactive) | > 100 µM (inactive) | 74.1 µM (inactive) | > 100 µM (inactive) | 35.1 µM (inactive) | 89.5 µM (inactive) | 52.8 µM (inactive) | 30.5 µM (inactive) | 43.4 µM (inactive) |  |  |
| CC(C)=CC1(C)/C(=N\O)C(C)(CC(C)C)C(=O)N1O (stereo not drawn) | > 100 µM (inactive) | > 100 µM (inactive) |  | > 100 µM (inactive) | > 100 µM (inactive) |  |  |  |  | > 100 µM (inactive) | > 100 µM (inactive) | > 100 µM (inactive) |  | > 100 µM (inactive) | > 100 µM (inactive) | > 100 µM (inactive) | > 100 µM (inactive) | > 100 µM (inactive) | > 100 µM (inactive) |
| CCOC(=O)NC(OCc1ccccc1)(C(=O)OC)C(F)(F)F (stereo not drawn) |  | > 100 µM (inactive) | > 100 µM (inactive) | 8.2 µM (inactive) | > 100 µM (inactive) | > 100 µM (inactive) | > 100 µM (inactive) | > 100 µM (inactive) | > 100 µM (inactive) | > 100 µM (inactive) | > 100 µM (inactive) | > 100 µM (inactive) | > 100 µM (inactive) |  | > 100 µM (inactive) | > 10 µM (inactive) | > 100 µM (inactive) | > 100 µM (inactive) |  |
| CC1CC/C(=C\c2ccc(Cl)cc2)C(=O)/C1=C\c1ccc(Cl)cc1 (stereo not drawn) | 1.63 µM (inactive) | 32.9 µM (inactive) | 29.9 µM (inactive) | 20.3 µM (inactive) |  | 36.8 µM (inactive) | 36.2 µM (inactive) | 28.4 µM (inactive) | 34.4 µM (inactive) |  | 20.4 µM (inactive) | 29.1 µM (inactive) | 36.8 µM (inactive) |  |  | 49.2 µM (inactive) | 39.9 µM (inactive) | > 100 µM (inactive) |  |
| COc1ccc(/N=C(\C)c2ccncc2)cc1 | 40.9 µM (inactive) | 34.7 µM (inactive) | 64 µM (inactive) | > 100 µM (inactive) |  | > 100 µM (inactive) | 66.7 µM (inactive) | > 100 µM (inactive) | > 100 µM (inactive) | 21 µM (inactive) | > 100 µM (inactive) | > 100 µM (inactive) | 26.9 µM (inactive) | > 100 µM (inactive) | > 100 µM (inactive) | > 100 µM (inactive) | > 100 µM (inactive) | > 100 µM (inactive) |  |
| CCCCCCCSc1nc2c(C(=O)OCC)ncn2c2ccccc12 |  | > 100 µM (inactive) |  |  | > 100 µM (inactive) |  |  |  |  |  | > 100 µM (inactive) | > 100 µM (inactive) |  | > 100 µM (inactive) |  |  | > 100 µM (inactive) | 25.1 µM (inactive) | > 100 µM (inactive) |
| O=C(c1nc2ccc(Cl)cc2nc1O)C(O)c1ccccc1 (stereo not drawn) | 14.8 µM (inactive) | 39 µM (inactive) |  | 65.5 µM (inactive) | 9.86 µM (inactive) |  |  |  |  | 57.7 µM (inactive) | > 100 µM (inactive) | > 100 µM (inactive) |  | > 100 µM (inactive) | 14.3 µM (inactive) |  | > 10 µM (inactive) | 18.2 µM (inactive) | > 100 µM (inactive) |
| N#C/C(=C1/Sc2c(nc[nH]c2=O)N1c1ccccc1)c1nc2ccccc2[nH]1 | > 100 µM (inactive) | > 100 µM (inactive) |  | > 100 µM (inactive) | > 100 µM (inactive) |  |  |  |  | > 100 µM (inactive) | > 100 µM (inactive) | > 100 µM (inactive) |  | > 100 µM (inactive) | > 100 µM (inactive) | 26 µM (inactive) | > 100 µM (inactive) | > 100 µM (inactive) | > 100 µM (inactive) |
| CCOC(=O)c1cc(C2CCN(Cc3ccccc3)C2=S)c(C(=O)C=[N+]=[N-])[nH]1 (stereo not drawn) | 77.4 µM (inactive) | 27.2 µM (inactive) | 26.9 µM (inactive) | 68.5 µM (inactive) |  | 45.6 µM (inactive) | 14.6 µM (inactive) | 33.1 µM (inactive) | 27.4 µM (inactive) |  | 21.2 µM (inactive) | 35.9 µM (inactive) | 40.1 µM (inactive) | 28.7 µM (inactive) | 54.7 µM (inactive) | 29.4 µM (inactive) | 25.3 µM (inactive) | 21.3 µM (inactive) |  |
| Cc1ccc(NC(=O)C(Cc2c[nH]c3ccccc23)NC(=O)Oc2ccccc2)cc1C (stereo not drawn) | 27.4 µM (inactive) | 84.3 µM (inactive) | 30.6 µM (inactive) | 53 µM (inactive) | 40.6 µM (inactive) | 38.3 µM (inactive) | 41.2 µM (inactive) | > 100 µM (inactive) | 37.3 µM (inactive) | > 100 µM (inactive) | 85.9 µM (inactive) | 0.728 µM (active) | 65.2 µM (inactive) | 14.3 µM (inactive) | 44.3 µM (inactive) |  | 80.2 µM (inactive) | 27.7 µM (inactive) |  |
| Fc1ccc2c(c1)SC1=Nc3sc4cc(F)ccc4[n+]3CN12 | 12.7 µM (inactive) | 20.6 µM (inactive) | 14.8 µM (inactive) | 14.9 µM (inactive) | < 0.01 µM (active) | 9.98 µM (inactive) | 21.6 µM (inactive) | 13.9 µM (inactive) | 21.4 µM (inactive) | 12.7 µM (inactive) | 21.4 µM (inactive) | 18.8 µM (inactive) | 39.6 µM (inactive) | 18.7 µM (inactive) | 14.5 µM (inactive) | 15.9 µM (inactive) | 16.7 µM (inactive) | 17.1 µM (inactive) |  |
| CCO[C@]12C[C@H](OC)[C@@]3(O)CC(C1[C@H]3O)C13C4C2[C@H](OC)C1[C@](COC)(CN4CC)[C@H](O)C[C@@H]3OC (stereo partly drawn) |  | 66.2 µM (inactive) |  |  | > 100 µM (inactive) |  |  |  |  | > 100 µM (inactive) |  | > 100 µM (inactive) |  |  | > 100 µM (inactive) | > 10 µM (inactive) |  |  | > 100 µM (inactive) |
| Cc1cc2cc3c(C)cc(=O)oc3c(C)c2o1 [TRIOXSALEN] | > 100 µM (inactive) | > 100 µM (inactive) | > 100 µM (inactive) | > 100 µM (inactive) | > 100 µM (inactive) | > 100 µM (inactive) | > 100 µM (inactive) | > 100 µM (inactive) | > 100 µM (inactive) | > 100 µM (inactive) | > 100 µM (inactive) |  | > 100 µM (inactive) | > 100 µM (inactive) | > 100 µM (inactive) | > 100 µM (inactive) | > 100 µM (inactive) | > 100 µM (inactive) |  |
